The values that follow come from ChEMBL document CHEMBL1126441, “A novel and selective class of azabicyclic muscarinic agonists incorporating an N-methoxy imidoyl halide or nitrile functionality” (Bioorg Med Chem Lett, 1992).

The target of data set [1] is Muscarinic acetylcholine receptor. Put plainly: In vitro inhibition of oxotremorine-M (OXO-M) binding to muscarinic receptors of rat cerebral cortex. The class given is tissue-based.
Data set [2] has the same target. Nature of the data set: In vitro inhibition of [3H]quinuclidinyl benzilate (QNB) binding to muscarinic receptors of rat cerebral cortex. In kind it is tissue-based.
Data set [3] concerns the target Muscarinic acetylcholine receptor (Rattus norvegicus) (UniProt P08482+P08483+P08485+P08911+P10980). Nature of the data set: Relative affinities compared to oxotremorine-M (OXO-M) and [3H]quinuclidinyl benzilate (QNB) for muscarinic receptors. The class given is protein assay.
Data set [4] has as its system Rattus norvegicus. Put plainly: Effective dose required to cause 50% fall in mean blood pressure (BP) by the compound on iv administration. The class given is functional.
Data set [5] in a line: LogD value represents the distribution coefficient at pH 7.3. In kind it is physicochemical. To be noted: octanol/water.
A short description of data set [6]: Ratio of 50% fall in mean blood pressure (BP) to rhythmical slow wave activity (RSA) was determined. In kind it is functional.
Data set [7] is described as follows: Partition coefficient (logP). In kind it is physicochemical. To be noted: octanol/water.
Data set [8] deals with Rattus norvegicus. Put plainly: The effective dose required to produce a change in the mean power spectrum of the EEG equivalent to that of a standard dose (0.32 mg/kg) of arecoline on iv administration. The class given is functional.
Data set [9] in a line: Compound was evaluated for its dissociation constant. In kind it is ADME.

Structures are written as SMILES.

As usually defined, the IC50 is the concentration that gives 50% inhibition. A higher IC50 goes with lower potency. Consider `CO/N=C(\C#N)[C@H]1CN2CCC1C2` (some centres undefined), for which the IC50 in data set [1] is 23 nM; in [2], 2300 nM.
As for `CO/N=C(\Cl)[C@H]1CN2CC[C@H]1C2`, the IC50 was 64 nM in data set [1] and 3000 nM in [2]. For the same compound, in [3], the Ratio was determined as 47.
The corresponding values for `CO/N=C(\C#N)C12CCN(CC1)C2` are 19 nM, 1950 nM and 103.
With `CO/N=C(\F)C1CN2CCC1CC2` (centres undefined), the IC50 stood at 34 nM in data set [1] and 2000 nM in [2]. Further, the Ratio in [3] was determined as 65.
The corresponding values for `CO/N=C(\F)[C@H]1CN2CC[C@H]1C2` are 9 nM, 3100 nM and 344.
As to `CO/N=C(\Br)C12CCCN(CC1)C2` (centres undefined), the results for the IC50 in [1] and in [2] were 190 nM and 2300 nM, respectively. Also, the Ratio in data set [3] amounted to 12.
On to `CO/N=C(\Br)[C@H]1CN2CC[C@H]1C2`, for which the 50% inhibitory concentration (IC50) in [1] is 59 nM; in data set [2], 3000 nM. Also, the Ratio in data set [3] worked out at 51.
Take `CO/N=C(\Br)C12CCN(CC1)C2`: the IC50 in [1] amounted to 160 nM; in data set [2], 8100 nM. In addition, the Ratio in data set [3] is 51.
For `CO/N=C(\F)C12CCN(CC1)C2`, the values for the IC50 in [1] and in [2] were 44 nM and 15500 nM, respectively. For the same compound, the Ratio in data set [3] was 352.
What is called ED50 is the dose that gives a 50% effect, or the effect in half of the subjects. A lower ED50 goes with greater potency. What is called logD is the decadic logarithm of the distribution of all forms, ionised or not, between an organic phase and buffer at a given pH. What is called logP is a log measure of how a compound divides between an organic and an aqueous phase. A low value points to lower lipophilicity. The pKa is the pH at which an ionisable group is half protonated. For the compound `CO/N=C(\C#N)C12CCCN(CC1)C2` (centres undefined), the ED50 in the data set with Rattus norvegicus [4] worked out at 0.02 mg/kg. The IC50 in [1] came to 11 nM; in [2], 220 nM. In addition, the logD in data set [5] is -0.18. Moreover, the Ratio in data set [6] is listed as 4. In addition, the logP in data set [7] came to 1.49. The “ED Arec” value in the data set on Rattus norvegicus [8] was 0.005 mg/kg. Moreover, the pKa in data set [9] was 8.96.
The compound `CO/N=C(\Cl)C12CCCN(CC1)C2` (centres undefined) returned an ED50 with Rattus norvegicus [4] of 0.32 mg/kg. Further, the IC50 in data set [1] was 72 nM; in data set [2] it was 3000 nM. The logD in data set [5] came to 0.18. The Ratio in data set [6] came to 11; in data set [3], 42. For the same compound, the logP in [7] stood at 2.12. For the same compound, the “ED Arec” value in the data set with Rattus norvegicus [8] was found to be 0.029 mg/kg. The compound further returned a pKa in data set [9] of 9.24.
For `CO/N=C(\Cl)C12CCN(CC1)C2`, the IC50 in [1] stood at 51 nM; in data set [2], 8500 nM. The Ratio in [3] turned out to be 167.
With `CO/N=C(\C#N)C1CN2CCC1CC2` (centres undefined), the ED50 in the data set with Rattus norvegicus [4] is > 0.56 mg/kg. The IC50 in [1] stood at 33 nM; in data set [2], 470 nM. Further, in data set [5], the logD is -0.11. The Ratio was >10.8 in data set [6] and 14 in [3]. Besides, in data set [7], the logP came out at 1.56. Besides, the “ED Arec” value in the data set with Rattus norvegicus [8] worked out at 0.052 mg/kg. Besides, in [9], the pKa was 8.96.
As to `CO/N=C(\Cl)C1CN2CCC1CC2` (centres undefined), the figures for the IC50 in [1] and in data set [2] were 69 nM and 1100 nM, respectively. Moreover, in data set [3], the Ratio was determined as 16.
In the case of `CO/N=C(\C)C1CN2CCC1CC2` (centres undefined), the ED50 with Rattus norvegicus [4] is > 0.1 mg/kg. The logD in data set [5] was -1.09. The Ratio in [6] was >0.35. Moreover, the logP in [7] worked out at 1.88. In addition, the “ED Arec” value with Rattus norvegicus [8] was 0.31 mg/kg. Further, in data set [9], the pKa stood at 10.3.
`CO/N=C(\C)C12CCCN(CC1)C2` (centres undefined) displayed an ED50 in the data set on Rattus norvegicus [4] of 0.068 mg/kg. In addition, the logD in data set [5] was -1.13. Also, the Ratio in data set [6] is listed as 1. Moreover, in data set [7], the logP was 1.65. For the same compound, the “ED Arec” value in the data set on Rattus norvegicus [8] worked out at 0.068 mg/kg. This compound displayed a pKa in data set [9] of 10.1.
In the data set with Rattus norvegicus [4], `CO/N=C(\F)C12CCCN(CC1)C2` (centres undefined) came in with an ED50 of 0.03 mg/kg. Besides, the IC50 in data set [1] came to 43 nM; in [2], 2400 nM. In addition, the pH-dependent lipophilicity (logD) in data set [5] is -0.76. Further, the Ratio in data set [6] was determined as 2.5; in data set [3], 56. This compound also showed a logP in data set [7] of 1.01. Further, the “ED Arec” value in the data set with Rattus norvegicus [8] is 0.012 mg/kg. Moreover, in data set [9], the pKa is 9.06.
